target: T1, p53 Y220C (Homo sapiens, UniProt P04637, Y220C); experiment: In vitro DNA binding activity assay (HTRF / TR-FRET): stabilization of p53 Y220C and increase of its DNA binding activity; assay type: biochemical; settings: recombinant His-tagged p53 Y220C DNA binding domain (aa 94-312), biotin-labeled consensus DNA, incubated at 27° C. or 29° C. for 60 min
T1 construct: The recombinant protein was a truncation mutant containing only amino acids 94-312 of p53; made in house; host or cells: E. coli
Outline: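 Homogeneous time-resolved fluorescence with E. coli-derived p53 Y220C and biotinylated consensus DNA. Room-temperature incubations of 15 and 20 min precede reading. SC150 denotes the compound concentration required for 50% increased DNA binding.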

T1 sequence (P04637 94-312, change not shown): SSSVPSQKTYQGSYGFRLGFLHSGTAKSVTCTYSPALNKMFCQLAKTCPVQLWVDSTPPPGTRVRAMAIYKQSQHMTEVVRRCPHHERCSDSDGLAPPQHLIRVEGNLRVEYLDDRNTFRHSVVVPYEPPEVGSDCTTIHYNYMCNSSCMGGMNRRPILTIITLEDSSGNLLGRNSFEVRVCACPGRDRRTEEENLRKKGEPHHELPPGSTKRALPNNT

| SC150 (concentration of the compound required to increase the DNA binding activity by 50%) | SMILES |
| --- | --- |
| + (+ = 0 μM ≤ SC150 < 0.05 μM) | CNC(=O)c1ccc(NCC#Cc2cc3c(N[C@H]4CC[C@H](N5CC6(COC6)C5)CC4)cccc3n2CC(F)(F)F)c(OCCF)c1 [Compound 240A, 3-(2-fluoroethoxy)-N-methyl-4-{[3-(4-{[(1R,4R)-4-{2-oxa-6-azaspiro[3.3]heptan-6-yl}cyclohexyl]amino}-1-(2,2,2-trifluoroethyl)-1H-indol-2-yl)prop-2-yn-1-yl]amino}benzamide] |
| + (+ = 0 μM ≤ SC150 < 0.05 μM) | CNC(=O)c1ccc(NCC#Cc2cc3c(N[C@H]4CC[C@@H](N5CC6(COC6)C5)CC4)cccc3n2CC(F)(F)F)c(OCCF)c1 [Compound 241A, 3-(2-fluoroethoxy)-N-methyl-4-{[3-(4-{[(1S,4S)-4-{2-oxa-6-azaspiro[3.3]heptan-6-yl}cyclohexyl]amino}-1-(2,2,2-trifluoroethyl)-1H-indol-2-yl)prop-2-yn-1-yl]amino}benzamide] |
| + (+ = 0 μM ≤ SC150 < 0.05 μM) | CNC(=O)c1ccc(NCC#Cc2cc3c(N[C@H]4CC[C@H](N5CC6(COC6)C5)CC4)cccc3n2CC(F)(F)F)c(OCC#N)c1 [Compound 242A, 3-(cyanomethoxy)-N-methyl-4-{[3-(4-{[(1R,4R)-4-{2-oxa-6-azaspiro[3.3]heptan-6-yl}cyclohexyl]amino}-1-(2,2,2-trifluoroethyl)-1H-indol-2-yl)prop-2-yn-1-yl]amino}benzamide] |
| + (+ = 0 μM ≤ SC150 < 0.05 μM) | CNC(=O)c1ccc(NCC#Cc2cc3c(N[C@H]4CC[C@@H](N5CC6(COC6)C5)CC4)cccc3n2CC(F)(F)F)c(OCC#N)c1 [Compound 243A, 3-(cyanomethoxy)-N-methyl-4-{[3-(4-{[(1S,4S)-4-{2-oxa-6-azaspiro[3.3]heptan-6-yl}cyclohexyl]amino}-1-(2,2,2-trifluoroethyl)-1H-indol-2-yl)prop-2-yn-1-yl]amino}benzamide] |
| ++ (++ = 0.05 μM ≤ SC150 < 0.1 μM) | CNc1cc(S(C)(=O)=O)ccc1OCC#Cc1cc2c(N[C@H]3CC[C@@H](N4CC5(COC5)C4)CC3)cccc2n1CC(F)(F)F [Compound 244A, 2-{3-[4-methanesulfonyl-2-(methylamino)phenoxy]prop-1-yn-1-yl}-N-[(1S,4S)-4-{2-oxa-6-azaspiro[3.3]heptan-6-yl}cyclohexyl]-1-(2,2,2-trifluoroethyl)-1H-indol-4-amine] |
| + (+ = 0 μM ≤ SC150 < 0.05 μM) | CNc1cc(S(C)(=O)=O)ccc1OCC#Cc1cc2c(NC3CCC(N4CC5(COC5)C4)CC3)cccc2n1CC(F)(F)F [Compound 245A, 2-{3-[4-methanesulfonyl-2-(methylamino)phenoxy]prop-1-yn-1-yl}-N-[(1R,4R)-4-{2-oxa-6-azaspiro[3.3]heptan-6-yl}cyclohexyl]-1-(2,2,2-trifluoroethyl)-1H-indol-4-amine] |
| + (+ = 0 μM ≤ SC150 < 0.05 μM) | CNC(=O)c1ccc(NCC#Cc2cc3c(N[C@H]4CC[C@H](N5CC6(COC6)C5)CC4)cccc3n2CC(F)(F)F)c(O)c1 [Compound 248A, 3-hydroxy-N-methyl-4-{[3-(4-{[(1R,4R)-4-{2-oxa-6-azaspiro[3.3]heptan-6-yl}cyclo-hexyl]amino}-1-(2,2,2-trifluoroethyl)-1H-indol-2-yl)prop-2-yn-1-yl]amino}benzamide] |
| + (+ = 0 μM ≤ SC150 < 0.05 μM) | COc1cc(C#N)ccc1NCC#Cc1cc2c(NC3CCC(N4CC5(COC5)C4)CC3)cccc2n1CC(F)(F)F (centres unmarked) [Compound 249A, 3-methoxy-4-[(3-{4-[(4-{2-oxa-6-azaspiro[3.3]heptan-6-yl}cyclohexyl)amino]-1-(2,2,2-trifluoroethyl)-1H-indol-2-yl}prop-2-yn-1-yl)amino]benzonitrile] |
| + (+ = 0 μM ≤ SC150 < 0.05 μM) | COc1cc(C#N)ccc1NCC#Cc1cc2c(NC3CCC(N4CC5(COC5)C4)CC3)cccc2n1CC(F)(F)F [Compound 250A, 3-methoxy-4-{[3-(4-{[(1S,4S)-4-{2-oxa-6-azaspiro[3.3]heptan-6-yl}cyclohexyl]amino}-1-(2,2,2-trifluoroethyl)-1H-indol-2-yl)prop-2-yn-1-yl]amino}benzonitrile] |
| + (+ = 0 μM ≤ SC150 < 0.05 μM) | COc1cc(C(C)(C)C#N)ccc1NCC#Cc1cc2c(NC3CCC(N4CC5(COC5)C4)CC3)cccc2n1CC(F)(F)F [Compound 251A, 2-(3-methoxy-4-{[3-(4-{[(1R,4R)-4-{2-oxa-6-azaspiro[3.3]heptan-6-yl}cyclohexyl]amino}-1-(2,2,2-trifluoroethyl)-1H-indol-2-yl)prop-2-yn-1-yl]amino}phenyl)-2-methylpropanenitrile] |
| + (+ = 0 μM ≤ SC150 < 0.05 μM) | CNC(=O)c1ccc(NCC#Cc2cc3c(NC4CCC(N5CC6(COC6)C5)CC4)cccc3n2CC(F)(F)F)c(OCF)c1 [Compound 253A, 3-(fluoromethoxy)-N-methyl-4-{[3-(4-{[(1R,4R)-4-{2-oxa-6-azaspiro[3.3]heptan-6-yl}cyclohexyl]amino}-1-(2,2,2-trifluoroethyl)-1H-indol-2-yl)prop-2-yn-1-yl]amino} benzamide] |
| + (+ = 0 μM ≤ SC150 < 0.05 μM) | CNC(=O)c1ccc(NCC#Cc2cc3c(NC4CCC(N5CC6(COC6)C5)CC4)cccc3n2CC(F)(F)F)c(OCCC#N)c1 [Compound 255A, 3-(2-cyanoethoxy)-N-methyl-4-{[3-(4-{[(1R,4R)-4-{2-oxa-6-azaspiro[3.3]heptan-6-yl}cyclohexyl]amino}-1-(2,2,2-trifluoroethyl)-1H-indol-2-yl)prop-2-yn-1-yl]amino}benzamide] |
| + (+ = 0 μM ≤ SC150 < 0.05 μM) | CS(=O)(=O)c1ccc(NCC#Cc2cc3c(NC4CCC(N5CC6(COC6)C5)CC4)cccc3n2CC(F)(F)F)c(OCF)c1 [Compound 257A, 2-(3-{[2-(fluoro-methoxy)-4-methane-sulfonylphenyl]amino}prop-1-yn-1-yl)-N-[(1R,4R)-4-{2-oxa-6-azaspiro[3.3]heptan-6-yl}cyclo-hexyl]-1-(2,2,2-trifluoroethyl)-1H-indol-4-amine] |
| + (+ = 0 μM ≤ SC150 < 0.05 μM) | N#CCOc1cc(S(N)(=O)=O)ccc1NCC#Cc1cc2c(NC3CCC(N4CC5(COC5)C4)CC3)cccc2n1CC(F)(F)F [Compound 259A, 3-(cyanomethoxy)-4-{[3-(4-{[(1R,4R)-4-{2-oxa-6-azaspiro[3.3]heptan-6-yl}cyclo-hexyl]amino}-1-(2,2,2-trifluoroethyl)-1H-indol-2-yl)prop-2-yn-1-yl]amino}benzene-1-sulfonamide] |
| + (+ = 0 μM ≤ SC150 < 0.05 μM) | NS(=O)(=O)c1ccc(NCC#Cc2cc3c(N[C@H]4CC[C@H](N5CC6(COC6)C5)CC4)cccc3n2CC(F)(F)F)c(OCF)c1 [Compound 261A, 3-(fluoromethoxy)-4-{[3-(4-{[(1R,4R)-4-{2-oxa-6-azaspiro[3.3]heptan-6-yl}cyclo-hexyl]amino}-1-(2,2,2-trifluoroethyl)-1H-indol-2-yl)prop-2-yn-1-yl]amino}benzene-1-sulfonamide] |
| + (+ = 0 μM ≤ SC150 < 0.05 μM) | CNS(=O)(=O)c1ccc(NCC#Cc2cc3c(N[C@H]4CC[C@H](N5CC6(COC6)C5)CC4)cccc3n2CC(F)(F)F)c(OC)c1 [Compound 263A, 4-((3-(4-(((1R,4R)-4-(2-oxa-6-azaspiro[3.3]heptan-6-yl)cyclo-hexyl)amino)-1-(2,2,2-trifluoroethyl)-1H-indol-2-yl)prop-2-yn-1-yl)amino)-3-methoxy-N-methylbenzene-sulfonamide] |
| + (+ = 0 μM ≤ SC150 < 0.05 μM) | COc1cc(Cl)ccc1NCC#Cc1cc2c(N[C@H]3CC[C@H](N4CC5(COC5)C4)CC3)cccc2n1CC(F)(F)F [Compound 265A, N-((1R,4R)-4-(2-oxa-6-azaspiro[3.3]heptan-6-yl)cyclohexyl)-2-(3-((4-chloro-2-methoxyphenyl)amino)prop-1-yn-1-yl)-1-(2,2,2-trifluoroethyl)-1H-indol-4-amine] |
| + (+ = 0 μM ≤ SC150 < 0.05 μM) | COc1cc(S(=O)(=O)N(C)C)ccc1NCC#Cc1cc2c(N[C@H]3CC[C@H](N4CC5(COC5)C4)CC3)cccc2n1CC(F)(F)F [Compound 267A, 4-((3-(4-(((1R,4R)-4-(2-oxa-6-azaspiro[3.3]heptan-6-yl)cyclo-hexyl)amino)-1-(2,2,2-trifluoroethyl)-1H-indol-2-yl)prop-2-yn-1-yl)amino)-3-methoxy-N,N-dimethylbenzene-sulfonamide] |
| + (+ = 0 μM ≤ SC150 < 0.05 μM) | CCS(=O)(=O)c1ccc(NCC#Cc2cc3c(N[C@H]4CC[C@H](N5CC6(COC6)C5)CC4)cccc3n2CC(F)(F)F)c(OC)c1 [Compound 269A, N-((1R,4R)-4-(2-oxa-6-azaspiro[3.3]heptan-6-yl)cyclohexyl)-2-(3-((4-(ethylsulfonyl)-2-methoxyphenyl)amino)prop-1-yn-1-yl)-1-(2,2,2-trifluoroethyl)-1H-indol-4-amine] |
| + (+ = 0 μM ≤ SC150 < 0.05 μM) | COc1cc(C(N)=O)c(F)cc1NCC#Cc1cc2c(N[C@H]3CC[C@H](N4CC5(COC5)C4)CC3)cccc2n1CC(F)(F)F [Compound 273A, 2-fluoro-5-methoxy-4-{[3-(4-{[(1R,4R)-4-{2-oxa-6-azaspiro[3.3]heptan-6-yl}cyclohexyl]amino}-1-(2,2,2-trifluoroethyl)-1H-indol-2-yl)prop-2-yn-1-yl]amino}benzamide] |

From patent US12428406B2 (PMV Pharmaceuticals, Inc., priority 2019, dated 2025)
